The values that follow are results of earlier work, collected in US20180125800A1, “Stable Formulation for Parenteral Administration of Tapentadol” (Gruenenthal GmbH, priority 2015, published 2018).

For this data set the following is noted: more pronounced at higher pH values.

For the compound `CC[C@@H](c1cccc(O)c1)[C@@H](C)CN(C)C` [Tapentadol, (1R,2R)-3-(3-dimethylamino-1-ethyl-2-methyl-propyl)-phenol], the antimicrobial properties result is listed as “exhibits antimicrobial properties”.
